PMC6710338, “Turning a Collagenesis-Inducing Peptide Into a Potent Antibacterial and Antibiofilm Agent Against Multidrug-Resistant Gram-Negative Bacteria” (Frontiers in Microbiology, 2019)
Where two headings read alike, the source gives them in different places. Square brackets hold non-standard residues; d marks the D form. Peptide text beside a SMILES is read from it. * marks the point of attachment. Palmitoyl = CCCCCCCCCCCCCCCC(=O)*; βAla = NCCC(=O)O

Key:
[1] = test system: E. coli ATCC 25922; experiment: MIC, broth microdilution (CLSI), ATCC reference strain; type: cell-based, Escherichia coli
Description: (§1) The minimum inhibitory concentration (MIC) of synthetic peptides was determined using the broth microdilution method in cation-adjusted Mueller-Hinton broth (MHB2 – Sigma-Aldrich, St. Louis, MO, United States), according to the recommendations of the Clinical and Laboratory Standards Institute ([CLSI, 2012]), against four reference strains, namely, P. aeruginosa ATCC 27853, E. coli ATCC 25922, S. aureus ATCC 25923 and Enterococcus faecalis ATCC 29212. MIC values of peptide 3.1-PP4 were also determined against MDR clinical isolates of P. aeruginosa (PA002, PA004, Pa3, Pa4), E. coli (Ec1, Ec2, EC001, EC002, EC003) and K. pneumoniae (KP004, KP007, KP010). The peptides were tested in the concentration range of 1–1024 μg/mL. The minimum bactericidal concentration (MBC) was determined as previously reported ([Bessa et al., 2018]). According to CLSI guidelines for antimicrobial susceptibility testing, MIC values were determined for all peptides against ATCC reference strains of two Gram-positive (S. aureus ATCC 25923 and E. faecalis ATCC 29212), and two Gram-negative (P. aeruginosa ATCC 27853 and E. coli ATCC 25922) bacterial species, and are shown in Table 2.

[2] = test system: P. aeruginosa ATCC 27853; experiment: as above; type: cell-based, Pseudomonas aeruginosa
Description: as §1

[3] = test system: S. aureus ATCC 25923; experiment: as above; type: cell-based, Staphylococcus aureus
Description: as §1

[4] = test system: E. faecalis ATCC 29212; experiment: as above; type: cell-based, Enterococcus faecalis
Description: as §1

[5] = test system: HFF-1 cells; type: cell-based, human
Description: Immortalized human foreskin fibroblasts (HFF-1) were grown as a monolayer from passage number 8–16. For routine maintenance, HFF-1 cells were cultured in Dulbecco’s Modified Eagle Medium (DMEM, from Cell Lines Service) supplemented with 15% fetal bovine serum (FBS, from CLS) and 1% antibiotic/antimycotic solution (100 units/mL of penicillin, 100 μg/mL of streptomycin and 0.25 μg/mL of amphotericin B, from Sigma-Aldrich, St. Louis, MO, United States) at 37°C in an humidified atmosphere with 5% CO2. Cells were harvested by trypsinization [0.25% (w/v) trypsin-EDTA4Na, Sigma-Aldrich, St. Louis, MO, United States] twice a week.
The cytotoxicity of synthetic peptides to HFF-1 cells was evaluated using the standard MTT assay. Briefly, cells were seeded at a density of 8 × 10^4 cells/well onto 96-well plate and incubated at 37°C in a 5% CO2 atmosphere. Cells were allowed to grow for 48 h, and serially diluted peptide solutions (0.78–100 μM) were added to the wells. Then, cells were incubated for 72 h at 37°C, after which wells were washed once with phosphate buffered saline (PBS, Sigma-Aldrich, St. Louis, MO, United States), followed by addition of a 0.45 mg/mL MTT solution to each well. Crystals were allowed to form for 1.5 h. Reaction was stopped by rejecting the medium and addition of dimethylsulfoxide (DMSO, Sigma-Aldrich, St. Louis, MO, United States). Absorbance was read at 570 nm (Biotek PowerWave XS).
At the end of the cytotoxicity assays, the number of viable cells was never below that of initially plated cells. As such, data are represented as peptide concentrations causing 50% growth inhibition (IC50) on HFF-1 cells, rather than as lethal dosis values. IC50 values thus obtained are also included in Table 2.

[6] = E. coli ATCC 25922, broth microdilution in cation-adjusted Mueller-Hinton broth (MHB2), CLSI, range tested 1–1024 μg/mL
[7] = P. aeruginosa ATCC 27853, broth microdilution in MHB2, CLSI, range tested 1–1024 μg/mL
[8] = S. aureus ATCC 25923, broth microdilution in MHB2, CLSI, range tested 1–1024 μg/mL
[9] = E. faecalis ATCC 29212, broth microdilution in MHB2, CLSI, range tested 1–1024 μg/mL

Structure (SMILES) | MIC ([1]; ATCC 25922) [µM] | MIC ([2]; ATCC 27853) [µM] | MIC ([3]; ATCC 25923) [µM] | MIC ([4]; ATCC 29212) | MIC [1, 6] [µg/mL] | MIC [2, 7] [µg/mL] | MIC [3, 8] [µg/mL] | MIC [4, 9] [µg/mL] | IC50 ([5]; 72 h) [µM] | MIC ([1]; E. coli ATCC 25922, broth microdilution in MHB2, CLSI, value in parentheses) [µM] | MIC ([2]; P. aeruginosa ATCC 27853, broth microdilution in MHB2, CLSI, value in parentheses) [µM] | MIC ([3]; S. aureus ATCC 25923, broth microdilution in MHB2, CLSI, value in parentheses) [µM] | MIC ([4]; E. faecalis ATCC 29212, broth microdilution in MHB2, CLSI, value in parentheses) [µM] | IC50 ([5]; 50% growth inhibition, MTT, 72 h incubation at 37°C, 0.78–100 μM, absorbance 570 nm, read-out: IC50 ± SEM on HFF-1 cells) [µM]
C[C@@H](O)[C@H](NC(=O)[C@@H](NC(=O)[C@@H](N)CCCCN)[C@@H](C)O)C(=O)N[C@@H](CCCCN)C(=O)N[C@@H](CO)C(N)=O [PP4, reference compound] (H-KTTKS-NH2) | > 1820 | > 1820 | > 1820 | > 1820 µM | – | – | – | – | > 100 | – | – | – | – | –
CC(C)C[C@H](NC(=O)[C@H](CC(C)C)NC(=O)[C@H](CCCCN)NC(=O)[C@H](CC(C)C)NC(=O)[C@H](CC(C)C)NC(=O)[C@H](Cc1c[nH]c2ccccc12)NC(=O)[C@H](CCCCN)NC(=O)[C@H](CC(C)C)NC(=O)[C@H](CC(C)C)NC(=O)[C@H](CCCCN)NC(=O)[C@H](CCCCN)NC(=O)[C@H](CO)NC(=O)[C@H](CCCCN)NC(=O)[C@@H](NC(=O)[C@@H](NC(=O)[C@@H](N)CCCCN)[C@@H](C)O)[C@@H](C)O)C(N)=O [PP4-3.1] (H-KTTKSKKLLKWLLKLL-NH2) | 2 | 1 | 4 | 8 µM | – | – | – | – | 25 ± 2 | – | – | – | – | –
CC(C)C[C@H](NC(=O)[C@H](CC(C)C)NC(=O)[C@H](CCCCN)NC(=O)[C@H](CC(C)C)NC(=O)[C@H](CC(C)C)NC(=O)[C@H](Cc1c[nH]c2ccccc12)NC(=O)[C@H](CCCCN)NC(=O)[C@H](CC(C)C)NC(=O)[C@H](CC(C)C)NC(=O)[C@H](CCCCN)NC(=O)[C@H](CCCCN)NC(=O)CCNC(=O)[C@H](CO)NC(=O)[C@H](CCCCN)NC(=O)[C@@H](NC(=O)[C@@H](NC(=O)[C@@H](N)CCCCN)[C@@H](C)O)[C@@H](C)O)C(N)=O [PP4-β-ala-3.1] (H-KTTKS[βAla]KKLLKWLLKLL-NH2) | 2 | 2 | 4 | 4 µM | – | – | – | – | 24 ± 2 | – | – | – | – | –
CC(C)C[C@H](NC(=O)[C@H](CC(C)C)NC(=O)[C@H](CCCCN)NC(=O)[C@H](CC(C)C)NC(=O)[C@H](CC(C)C)NC(=O)[C@H](Cc1c[nH]c2ccccc12)NC(=O)[C@H](CCCCN)NC(=O)[C@H](CC(C)C)NC(=O)[C@H](CC(C)C)NC(=O)[C@H](CCCCN)NC(=O)[C@@H](N)CCCCN)C(N)=O [Peptide 3.1, reference compound] (H-KKLLKWLLKLL-NH2) | – | – | – | – | – | – | – | – | – | 6 | 3 | 3 | 3 to 6 | 50 ± 3
CCCCCCCCCCCCCCCC(=O)N[C@@H](CCCCN)C(=O)N[C@H](C(=O)N[C@H](C(=O)N[C@@H](CCCCN)C(=O)N[C@@H](CO)C(N)=O)[C@@H](C)O)[C@@H](C)O [Peptide C16-PP4, reference compound] (Palmitoyl-KTTKS-NH2) | – | – | – | – | – | – | – | – | > 100 | – | – | – | – | –

More lines, main results first:

MIC ([1]; ATCC 25922) [µM] | MIC ([2]; ATCC 27853) [µM] | MIC ([3]; ATCC 25923) [µM] | MIC ([4]; ATCC 29212) | MIC [1, 6] [µg/mL] | MIC [2, 7] [µg/mL] | MIC [3, 8] [µg/mL] | MIC [4, 9] [µg/mL] | Structure (SMILES) | IC50 ([5]; 72 h) [µM] | MIC ([1]; E. coli ATCC 25922, broth microdilution in MHB2, CLSI, value in parentheses) [µM] | MIC ([2]; P. aeruginosa ATCC 27853, broth microdilution in MHB2, CLSI, value in parentheses) [µM] | MIC ([3]; S. aureus ATCC 25923, broth microdilution in MHB2, CLSI, value in parentheses) [µM] | MIC ([4]; E. faecalis ATCC 29212, broth microdilution in MHB2, CLSI, value in parentheses) [µM] | IC50 ([5]; 50% growth inhibition, MTT, 72 h incubation at 37°C, 0.78–100 μM, absorbance 570 nm, read-out: IC50 ± SEM on HFF-1 cells) [µM]
29 | 29 | 59 | 30 to 59 µM | 64 | 64 | 128 | 64 to 128 | CCCCCCCCCCCCCCCC(=O)N[C@@H](CCCCN)C(=O)N[C@@H](CCCCN)C(=O)N[C@@H](CC(C)C)C(=O)N[C@@H](CC(C)C)C(=O)N[C@@H](CCCCN)C(=O)N[C@@H](Cc1c[nH]c2ccccc12)C(=O)N[C@@H](CC(C)C)C(=O)N[C@@H](CC(C)C)C(=O)N[C@@H](CCCCN)C(=O)N[C@@H](CC(C)C)C(=O)N[C@@H](CC(C)C)C(=O)N[C@@H](CCCCN)C(=O)N[C@H](C(=O)N[C@H](C(=O)N[C@@H](CCCCN)C(=O)N[C@@H](CO)C(N)=O)[C@@H](C)O)[C@@H](C)O [Peptide C16-3.1-PP4] (Palmitoyl-KKLLKWLLKLLKTTKS-NH2) | 17.8 ± 0.5 | – | – | – | – | –
78.4 | 78.4 | > 627 | 256 µg/mL | 128 | 128 | > 1024 | – | CCCCCCCCCCCCCCCC(=O)N[C@@H](CCCCN)C(=O)N[C@@H](CCCCN)C(=O)N[C@@H](CC(C)C)C(=O)N[C@@H](CC(C)C)C(=O)N[C@@H](CCCCN)C(=O)N[C@@H](Cc1c[nH]c2ccccc12)C(=O)N[C@@H](CC(C)C)C(=O)N[C@@H](CC(C)C)C(=O)N[C@@H](CCCCN)C(=O)N[C@@H](CC(C)C)C(=O)N[C@@H](CC(C)C)C(N)=O [Peptide C16-3.1] (Palmitoyl-KKLLKWLLKLL-NH2) | 23.4 ± 0.7 | – | – | – | – | –
15 | 29 | 29 | 29 µM | 32 | 64 | 64 | 64 | CCCCCCCCCCCCCCCC(=O)N[C@@H](CCCCN)C(=O)N[C@H](C(=O)N[C@H](C(=O)N[C@@H](CCCCN)C(=O)N[C@@H](CO)C(=O)N[C@@H](CCCCN)C(=O)N[C@@H](CCCCN)C(=O)N[C@@H](CC(C)C)C(=O)N[C@@H](CC(C)C)C(=O)N[C@@H](CCCCN)C(=O)N[C@@H](Cc1c[nH]c2ccccc12)C(=O)N[C@@H](CC(C)C)C(=O)N[C@@H](CC(C)C)C(=O)N[C@@H](CCCCN)C(=O)N[C@@H](CC(C)C)C(=O)N[C@@H](CC(C)C)C(N)=O)[C@@H](C)O)[C@@H](C)O [Peptide C16-PP4-3.1] (Palmitoyl-KTTKSKKLLKWLLKLL-NH2) | 4.98 ± 0.08 | – | – | – | – | –
